Test in all cases: growth of human tumour cells (NCI), 48 h
Experiment [1] concerns MDA-MB-231 breast.
Experiment [2] relates to HL-60(TB) leukemia.
The test system of experiment [3] is IGROV1 ovarian.
The subject of experiment [4] is HOP-92 NSCLC.
Experiment [5] relates to UACC-257 melanoma.
The subject of experiment [6] is MALME-3M melanoma.
Experiment [7] has as its system NCI/ADR-RES ovarian.
The test system of experiment [8] is SK-MEL-5 melanoma.
The subject of experiment [9] is OVCAR-3 ovarian.
Experiment [10] concerns A549 NSCLC.

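Interpolation was linear, between the two tested concentrations surrounding the appropriate level; five concentrations were tested over 48 hours in 96-well plates. GI50 is the concentration that inhibits growth by half. The concentration for full growth arrest is given as TGI.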 Bounds are passed on as bounds.

On to `OCCCCC#Cc1ccccc1C#Cc1cccnc1`, for which the GI50 in experiment [1] is 22.4 µM; in experiment [2], 26.8 µM; in [3], 20.3 µM; in experiment [4] it was 38.2 µM; in [5], 25 µM; in [6], 37.8 µM. Besides, the GI50 is 28.9 µM in experiment [7], 54.8 µM in [8], 32.9 µM in experiment [9] and 25.5 µM in experiment [10]. Further, the TGI is 69.7 µM in [1]; 75.1 µM in [2]; 52 µM in experiment [3]; above 100 µM in [4]; 54.1 µM in experiment [5]; 92.2 µM in experiment [6]. In addition, the TGI in experiment [7] was above 100 µM; in experiment [8] it was above 100 µM; in experiment [9], above 100 µM; in experiment [10] it was 80.2 µM.

Take `CCC[CH2][Sn]([CH2]CCC)([CH2]CCC)/[C](=C/[Si](C)(C)c1ccccc1)c1ccc2c(c1)OCO2`: the GI50 in experiment [1] was 14.8 µM; in experiment [2], 15.8 µM; in [3], 16.9 µM; in [4] it was 11.4 µM; in experiment [5], 22.4 µM; in [6], 3.2 µM. The GI50 in experiment [7] was 26.2 µM; in experiment [8], 15.8 µM; in experiment [9], 19.8 µM; in experiment [10], 25.2 µM. The TGI is 32.8 µM in experiment [1]; 35.4 µM in experiment [2]; 37.9 µM in experiment [3]; 29.4 µM in experiment [4]; 58.7 µM in experiment [5]; 15 µM in experiment [6]. Moreover, the TGI in experiment [7] came out at 86.3 µM; in experiment [8], 30.1 µM; in [9] it was 40.2 µM; in [10] it was 82.9 µM.

On to `CC12CCC(=O)C(O1)C1C(=O)c3ccc4c(ccc5ccccc54)c3C(=O)C12` (stereo not given), for which the GI50 was 2.14 µM in experiment [1]; 1.66 µM in experiment [2]; 7.09 µM in [3]; 7.1 µM in [4]; 3.11 µM in [5]; 0.945 µM in experiment [6]. For the same compound, the GI50 was 5.43 µM in experiment [7], 1.63 µM in [8], 1.2 µM in experiment [9] and 9.34 µM in [10]. Further, the TGI in experiment [1] was 6.64 µM; in experiment [2] it was 7.21 µM; in experiment [3] it was above 100 µM; in experiment [4], 32.3 µM; in [5], 8.15 µM; in experiment [6], 4.4 µM. The TGI in [7] was 12.6 µM; in experiment [8], 3.3 µM; in experiment [9], 2.64 µM; in experiment [10], 33.2 µM.

Regarding `CCCCC#Cc1c(I)n(C2OC(CO[Si](C)(C)C(C)(C)C)C3OC(C)(C)OC32)c(=O)n(C(=O)c2ccccc2)c1=O` (stereo not given), the GI50 was 17.7 µM in experiment [1]; 10.1 µM in experiment [2]; 3.96 µM in experiment [3]; 0.885 µM in experiment [4]; 16.4 µM in [5]; 2.5 µM in experiment [6]. The GI50 was 18.5 µM in experiment [7], 14.2 µM in [8], 1.47 µM in [9] and above 100 µM in experiment [10]. Besides, the TGI was 37.7 µM in experiment [1]; 28.6 µM in experiment [2]; 13.4 µM in experiment [3]; 13.5 µM in experiment [4]; 30.7 µM in experiment [5]; 4.91 µM in experiment [6]. Besides, the TGI in experiment [7] is 49.3 µM; in experiment [8], 27.2 µM; in experiment [9], 2.82 µM; in [10], above 100 µM.

Regarding `Nc1c(C(=O)c2cccc(C(O)CO)c2)cnn1-c1ccc(F)cc1` (stereo not given), the GI50 in experiment [1] is above 25 µM; in [2] it was above 12.9 µM; in [3], above 25 µM; in experiment [4], above 25 µM; in experiment [5] it was above 25 µM; in experiment [6], above 25 µM. The GI50 in experiment [7], in experiment [8], in experiment [9] and in experiment [10] was above 25 µM throughout. The TGI in [1], in [2], in experiment [3], in [4], in [5] and in [6] was above 25 µM throughout. Besides, the TGI in [7], in experiment [8], in experiment [9] and in experiment [10] was above 25 µM throughout.

For the compound `CCCCCCCCCCCNC=O`, the TGI in [1] is above 100 µM; in experiment [2] it was 39.7 µM; in experiment [3] it was above 100 µM; in experiment [4], above 100 µM; in experiment [5] it was above 100 µM; in experiment [6] it was above 100 µM. Besides, the TGI in [7] was 96.6 µM; in experiment [8], 92 µM; in [9], above 100 µM; in experiment [10] it was above 100 µM.

(Values after PubChem BioAssay (NCI).)
